{"source": "patent US8466104B2", "about": "“Therapeutically active alpha MSH analogues” (AbbVie Inc., priority 2005, dated 2013)", "tested_on": "LPS induced cytokine release and pulmonary hypertension in pigs", "test": "Inhibition of LPS induced cytokine release and pulmonary hypertension in pigs in vivo (experimental setup 4)", "parameters": "species or system pig", "settings": "200 μg/kg single iv bolus", "protocol": "Inhibition of LPS Induced Cytokine Release and Pulmonary Hypertension in Pigs in vivo.\nFemale Landrace pigs (˜30 kg) are fasted overnight but allowed free access to water. Then the pigs are premedicated with intramuscular ketamine (10 mg/kg) and midazolam (0.25 mg/kg). Anesthesia is induced with intravenous ketamine (5 mg/kg). The pigs are orally intubated, and anesthesia is maintained with a continuous intravenous infusion of fentanyl (60 μg/kg/h and midazolam (6 mg/kg/h). The animals are ventilated with a volume-controlled ventilator (Servo 900 ventilator; Siemens Elema, Solna, Sweden) with a positive end-expiratory pressure of 5 cm H2O. Tidal volume is kept at 10-15 ml/kg, and the respiratory rate adjusted (20-25 breaths/min) to maintain normocapnia (arterial carbon dioxide tension [PaCO2] in the range of 34-45 mmHg). Ventilation is performed with oxygen in air aimed tot reach an arterial oxygen tension (PaO2) higher than 105 mmHg. One arterial and 2 venous sheaths are placed in the carotid artery and corresponding veins for infusion, blood pressure measurements through fluid filled catheter, blood sampling and for introducing catheters.\nLocalization of the balloon-tipped catheter is determined by observing the characteristic pressure trace on the monitor as it is advance through the right side of the heart into the pulmonary artery as well as by x-ray. […]", "data": [{"substance": "Ac-Lys-Lys-Lys-Lys-Lys-Lys-Ser-Tyr-Ser-Met-Glu-His-Phe-Arg-Trp-Gly-Lys-Pro-Val-NH2 (Ac-KKKKKKSYSMEHFRWGKPV-NH2) [a-MSH analogue #1]", "values": [{"measurement": "plasma concentrations of TNFa after LPS infusion", "value": "marked reduction in plasma concentrations of TNFa"}, {"measurement": "maximal increase in pulmonary artery pressure (PAP)", "setting": "LPS infusion", "value": "8±2", "unit": "mmHg"}]}]}
